Biological target: T1, human mAChR M1 (Homo sapiens, UniProt P11229)
T1 sequence (P11229 1-460): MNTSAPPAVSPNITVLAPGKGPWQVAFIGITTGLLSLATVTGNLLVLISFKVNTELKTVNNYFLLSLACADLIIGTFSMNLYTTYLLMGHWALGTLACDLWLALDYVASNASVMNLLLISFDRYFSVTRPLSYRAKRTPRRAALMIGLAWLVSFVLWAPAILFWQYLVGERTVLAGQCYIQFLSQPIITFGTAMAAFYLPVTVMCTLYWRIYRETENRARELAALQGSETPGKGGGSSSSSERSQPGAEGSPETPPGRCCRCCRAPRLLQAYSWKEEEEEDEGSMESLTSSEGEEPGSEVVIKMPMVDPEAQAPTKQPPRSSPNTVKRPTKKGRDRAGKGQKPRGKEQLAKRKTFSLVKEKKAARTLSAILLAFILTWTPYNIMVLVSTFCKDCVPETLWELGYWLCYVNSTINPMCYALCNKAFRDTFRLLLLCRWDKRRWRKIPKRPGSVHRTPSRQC
Test: mAChR M1 cell-based functional assay (calcium mobilization, PAM activity)
Details: CHO-K1 cells expressing hM1, calcium flux (Fluo-4); for EC50: concentration-dependent increase in the EC20 acetylcholine response; for Emax: potentiation of EC20 acetylcholine response
Description: Chinese hamster ovary (CHO-K1) cells stably expressing rat (r)M1 were purchased from the American Type Culture Collection and cultured according to their indicated protocol. CHO cells stably expressing human (h)M2, hM3, and hM5 were described previously (Levey, et al., 1991); hM1 and hM4 cDNAs were purchased from Missouri S&T cDNA Resource; rM4 cDNA was provided by T. I. Bonner (National Institutes of Health, Bethesda, Md.). rM2 and rM3 were cloned from a rat brain cDNA library and sequence verified. hM1, rM2, rM3, hM4, and rM4 cDNAs were used to stably transfect CHO-K1 cells purchased from the American Type Culture Collection using Lipofectamine 2000. To make stable rM2, hM2, rM3, hM4, and rM4 cell lines for use in calcium mobilization assays, these cells also were stably transfected with a chimeric G-protein (Gqi5) (provided by B. R. Conklin, University of California, San Francisco) using Lipofectamine 2000. rM1, hM1, rM3, hM3, rM5, and hM5 cells were grown in Ham's F-12 medium containing 10% heat-inactivated fetal bovine serum (FBS), 20 mM HEPES, and 50 μg/mL G418 sulfate. rM2-Gqi5, hM2-Gqi5, and hM4-Gqi5 cells were grown in the same medium also containing 500 μg/mL Hygromycin B. Stable rM4-Gqi5 cells were grown in DMEM containing 10% heat-inactivated FBS, 20 mM HEPES, 400 μg/mL G418 sulfate, and 500 μg/mL Hygromycin B.
For high throughput measurement of agonist-evoked increases in intracellular calcium, CHO-K1 cells stably expressing muscarinic receptors were plated in growth medium lacking G418 and hygromycin at 15,000 cells/20 μL/well in Greiner 384-well black-walled, tissue culture (TC)-treated, clear-bottom plates (VWR). Cells were incubated overnight at 37° C. and 5% CO2. The next day, cells were washed using an ELX 405 (BioTek) with four washes (80 μL) of assay buffer then aspirated to 20 μL. Next, 20 μL of 16 μM Fluo-4/acetoxymethyl ester (Invitrogen, Carlsbad, Calif.) prepared as a 2.3 mM stock in DMSO and mixed in a 1:1 ratio with 10% (w/v) Pluronic F-127 and diluted in assay buffer was added to the wells and the cell plates were incubated for 50 min at 37° C. and 5% CO2. Dye was removed by washing with the ELX 405 (four 80 μL washes of assay buffer) then aspirated to 20 μL. Compound master plates were formatted in an 11 point CRC format (1:3 dilutions) in 100% DMSO with a starting concentration of 10 mM using the BRAVO liquid handler (Agilent). Test compound CRCs were then transferred to daughter plates (240 nL) using the Echo acoustic plate reformatter (Labcyte, Sunnyvale, Calif.) and then diluted into assay buffer (40 μL) to a 2× stock using a Thermo Fisher Combi (Thermo Fisher Scientific, Waltham, Mass.).
Calcium flux was measured using the Functional Drug Screening System (FDSS) 6000 (Hamamatsu Corporation, Tokyo, Japan) as an increase in the fluorescent static ratio. Compounds were applied to cells (20 μL, 2×) using the automated system of the FDSS 6000 at 4 s into the 300 s protocol and the data were collected at 1 Hz. At 144 s into the 300s protocol, 10 μL of an EC20 concentration of the muscarinic receptor agonist acetylcholine was added (5×), followed by the addition of 12 μL an EC80 concentration of acetylcholine at the 230 s time point (5×). Agonist activity was analyzed as a concentration-dependent increase in calcium mobilization upon compound addition. Emax values for agonist activity are expressed relative to the maximum for acetylcholine. Positive allosteric modulator activity was analyzed as a concentration-dependent increase in the EC20 acetylcholine response. Antagonist activity was analyzed as a concentration-dependent decrease in the EC80 acetylcholine response. Concentration-response curves were generated using a four-parameter logistical equation in XLfit curve fitting software (IDBS, Bridgewater, N.J.) for Excel (Microsoft, Redmond, Wash.) or Prism (GraphPad Software, Inc., San Diego, Calif.). […]

EC50 [nM] | Emax [%] | Compound
6340 | 68 | Cn1ccc(-c2ccc(Cc3cc(C(=O)NC4CCOCC4)c4nccn4c3)cc2)n1 [compound 1, 6-[[4-(1-methylpyrazol-3-yl)phenyl]methyl]-N-tetrahydropyran-4-yl-imidazo[1,2-a]pyridine-8-carboxamide]
313 | 77 | Cn1ccc(-c2ccc(Cc3cc(C(=O)N[C@@H]4CCCC[C@H]4O)c4nccn4c3)cc2)n1 [compound 2, N-[(1R,2R)-2-hydroxycyclohexyl]-6-[[4-(1-methylpyrazol-3-yl)phenyl]methyl]imidazo[1,2-a]pyridine-8-carboxamide]
4290 | 76 | Cn1ccc(-c2ccc(Cc3cc(C(=O)NC4CC5(COC5)C4)c4nccn4c3)cc2)n1 [compound 3, 6-[[4-(1-methylpyrazol-3-yl)phenyl]methyl]-N-(2-oxaspiro[3.3]heptan-6-yl)imidazo[1,2-a]pyridine-8-carboxamide]
1500 | 80 | Cn1ccc(-c2ccc(Cc3cc(C(=O)N[C@@H]4CCC[C@H]4O)c4nccn4c3)cc2)n1 [compound 4, N-[(1R,2R)-2-hydroxycyclopentyl]-6-[[4-(1-methylpyrazol-3-yl)phenyl]methyl]imidazo[1,2-a]pyridine-8-carboxamide]
384 | 78 | Cn1ccc(-c2ccc(Cc3cc(C(=O)N[C@@H]4CCOC[C@H]4O)c4nccn4c3)cc2)n1 [compound 5, N-[(3S,4R)-3-hydroxytetrahydropyran-4-yl]-6-[[4-(1-methylpyrazol-3-yl)phenyl]methyl]imidazo[1,2-a]pyridine-8-carboxamide]
790 | 85 | Cn1ccc(-c2ccc(Cc3cc(C(=O)N[C@H]4CCOC[C@@H]4O)c4ncnn4c3)cc2)n1 [compound 6, N-[(3R,4S)-3-hydroxytetrahydropyran-4-yl]-6-[[4-(1-methylpyrazol-3-yl)phenyl]methyl]-[1,2,4]triazolo[1,5-a]pyridine-8-carboxamide]
483 | 86 | Cn1ccc(-c2ccc(Cc3cc(C(=O)N[C@H]4CCCC[C@@H]4O)c4ncnn4c3)cc2)n1 [compound 7, N-[(1S,2S)-2-hydroxycyclohexyl]-6-[[4-(1-methylpyrazol-3-yl)phenyl]methyl]-[1,2,4]triazolo[1,5-a]pyridine-8-carboxamide]
 | 53 | Cn1ccc(-c2ccc(Cc3cc(C(=O)NC4CCOCC4)c4ncnn4c3)cc2)n1 [compound 8, 6-[[4-(1-methylpyrazol-3-yl)phenyl]methyl]-N-tetrahydropyran-4-yl-[1,2,4]triazolo[1,5-a]pyridine-8-carboxamide]
4860 | 66 | Cn1ccc(-c2ccc(Cc3cc(C(=O)NC4CC5(COC5)C4)c4ncnn4c3)cc2)n1 [compound 9, 6-[[4-(1-methylpyrazol-3-yl)phenyl]methyl]-N-(2-oxaspiro[3.3]heptan-6-yl)-[1,2,4]triazolo[1,5-a]pyridine-8-carboxamide]
4070 | 74 | Cn1ccc(-c2ccc(Cc3cc(C(=O)N[C@@H]4CC[C@H]4O)c4ncnn4c3)cc2)n1 [compound 10, N-[(1R,2R)-2-hydroxycyclobutyl]-6-[[4-(1-methylpyrazol-3-yl)phenyl]methyl]-[1,2,4]triazolo[1,5-a]pyridine-8-carboxamide]
2540 | 88 | Cn1ccc(-c2ccc(Cc3cc(C(=O)N[C@H]4CCC[C@@H]4O)c4ncnn4c3)cc2)n1 [compound 11, N-[(1S,2S)-2-hydroxycyclopentyl]-6-[[4-(1-methylpyrazol-3-yl)phenyl]methyl]-[1,2,4]triazolo[1,5-a]pyridine-8-carboxamide]
903 | 83 | Cn1cc(-c2ccc(Cc3cc(C(=O)N[C@H]4CCOC[C@@H]4O)c4ncnn4c3)cn2)cn1 [compound 12, N-[(3R,4S)-3-hydroxytetrahydropyran-4-yl]-6-[[6-(1-methylpyrazol-4-yl)-3-pyridyl]methyl]-[1,2,4]triazolo[1,5-a]pyridine-8-carboxamide]

Source: patent publication US20200131180A1, “POSITIVE ALLOSTERIC MODULATORS OF THE MUSCARINIC ACETYLCHOLINE RECEPTOR M1” (Vanderbilt University, priority 2018, published 2020)
